Patent publication US9376418B2, “Substituted pyridine spleen tyrosine kinase (SYK) inhibitors” (Merck Sharp & Dohme Corp., priority 2012, dated 2016)

Molecular target: T1, recombinant human GST-SYK (Homo sapiens, UniProt P43405)
T1 construct: purchased Carna Biosciences 08-176
Assay: Homogeneous Time-Resolved Fluorescence (HTRF) assay for the recombinant human Syk enzyme
Format: biochemical
Conditions: HTRF assay, recombinant human GST-SYK; IC50 given as class symbols; read-out: rhSYK Activity
Outline: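 GST-hSYK ([…]) was preincubated with inhibitor (0.1% DMSO) for 10 min at room temperature in Tris-HCl pH 7.5 with tween 20 and DTT. Biotinylated peptide (250 nM), Mg (5 mM) and ATP (25 μM) were added for 45 min. The reaction was quenched with EDTA, and phosphotyrosine was read by Eu-antibody/SA-APC HTRF after 30 min.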

IC50	Structure (SMILES)
< 100 nM	Cc1cc(Nc2nccc(C(F)(F)F)n2)cc(-c2ccc(CCC(=O)O)nc2)c1 [Example 13.2, 3-[5-(3-Methyl-5-{[4-(trifluoromethyl)pyrimidin-2-yl]amino}phenyl)pyridin-2-yl]propanoic acid]
< 100 nM	Cc1cc(Nc2nccc(C(F)(F)F)n2)cc(-c2ccc(CCC(N)=O)nc2)c1 [Example 13.3, 3-[5-(3-Methyl-5-{[4-(trifluoromethyl)pyrimidin-2-yl]amino}phenyl)pyridin-2-yl]propanamide]
< 100 nM	Cc1cc(Nc2nccc(C(F)(F)F)n2)cc(-c2ccc(CCc3nnn[nH]3)nc2)c1 [Example 13.4, N-(3-Methyl-5-{6-[2-(1H-tetrazol-5-yl)ethyl]pyridin-3-yl}phenyl)-4-(trifluoromethyl)pyrimidin-2-amine]
< 100 nM	Cc1cc(Nc2nccc(C(F)(F)F)n2)cc(-c2ccc(CCc3noc(=O)[nH]3)nc2)c1 [Example 13.5, 3-{2-[5-(3-Methyl-5-{[4-(trifluoromethyl)pyrimidin-2-yl]amino}phenyl)pyridin-2-yl]ethyl}-1,2,4-oxadiazol-5(4H)-one]
< 100 nM	Cc1cc(Nc2nccc(C(F)(F)F)n2)cc(-c2ccc(CN3CCCC3=O)nc2)c1 [Example 14.1, 1-{[5-(3-Methyl-5-{[4-(trifluoromethyl)pyrimidin-2-yl]amino}phenyl)pyridin-2-yl]methyl}pyrrolidin-2-one]
< 100 nM	COCCNc1cncc(-c2cc(C)cc(Nc3nccc(C(F)(F)F)n3)c2)c1 [Example 15.1, N-(3-{5-[(2-Methoxyethyl)amino]pyridin-3-yl}-5-methylphenyl)-4-(trifluoromethyl)pyrimidin-2-amine]
< 100 nM	Cc1cc(Nc2nccc(C(F)(F)F)n2)cc(-c2cncc(NCC3CC3)c2)c1 [Example 15.11]
< 100 nM	Cc1cc(Nc2nccc(C(F)(F)F)n2)cc(-c2cncc(NCCN3CCOCC3)c2)c1 [Example 15.16]
< 100 nM	Cc1cc(Nc2nccc(C(F)(F)F)n2)cc(-c2cncc(NCC(=O)O)c2)c1 [Example 15.20, N-[5-(3-methyl-5-{[4-(trifluoromethyl)pyrimidin-2-yl]amino}phenyl)pyridin-3-yl]glycine]
< 100 nM	Cc1cc(Nc2nccc(C(F)(F)F)n2)cc(-c2cncc(NCc3ccc[nH]c3=O)c2)c1 [Example 15.21, 3-({[5-(3-methyl-5-{[4-(trifluoromethyl)pyrimidin-2-yl]amino}phenyl)pyridin-3-yl]amino}methyl)pyridin-2(1H)-one]
< 100 nM	Cc1cc(Nc2nccc(C(F)(F)F)n2)cc(-c2cncc(NCCO)c2)c1 [Example 15.22, 2-{[5-(3-Methyl-5-{[4-(trifluoromethyl)pyrimidin-2-yl]amino}phenyl)pyridin-3-yl]amino}ethanol]
< 100 nM	CC(=O)N1CCN(c2cc(-c3cc(C)cc(Nc4nccc(C(F)(F)F)n4)c3)ccn2)CC1 [Example 15.23, 1-{4-[4-(3-Methyl-5-{[4-(trifluoromethyl)pyrimidin-2-yl]amino}phenyl)pyridin-2-yl]piperazin-1-yl}ethanone]
< 100 nM	Cc1cc(Nc2nccc(C(F)(F)F)n2)cc(-c2ccnc(N3CCN(C=O)CC3)c2)c1 [Example 15.24, 4-[4-(3-methyl-5-{[4-(trifluoromethyl)pyrimidin-2-yl]amino}phenyl)pyridin-2-yl]piperazine-1-carbaldehyde]
100 to 1000 nM	Cc1cc(Nc2nccc(C(F)(F)F)n2)cc(-c2ccnc(N3CCC4(CCCC(=O)N4)CC3)c2)c1 [Example 15.25, 9-[4-(3-methyl-5-{[4-(trifluoromethyl)pyrimidin-2-yl]amino}phenyl)pyridin-2-yl]-1,9-diazaspiro[5.5]undecan-2-one]
1000 to 10000 nM	Cc1cc(Nc2nccc(C(F)(F)F)n2)cc(-c2ccnc(N3CCCC4(CCCCO4)C3)c2)c1 (centres unmarked) [Example 15.26, N-{3-methyl-5-[2-(1-oxa-8-azaspiro[5.5]undec-8-yl)pyridin-4-yl]phenyl}-4-(trifluoromethyl)pyrimidin-2-amine]
< 100 nM	Cc1cc(Nc2nccc(C(F)(F)F)n2)cc(-c2ccnc(N3CCCC4(CCCNC4=O)C3)c2)c1 (centres unmarked) [Example 15.27, 8-[4-(3-methyl-5-{[4-(trifluoromethyl)pyrimidin-2-yl]amino}phenyl)pyridin-2-yl]-2,8-diazaspiro[5.5]undecan-1-one]
100 to 1000 nM	Cc1cc(Nc2nccc(C(F)(F)F)n2)cc(-c2ccnc(N3CCCC4(CCCO4)C3)c2)c1 (centres unmarked) [Example 15.28, N-{3-methyl-5-[2-(1-oxa-7-azaspiro[4.5]dec-7-yl)pyridin-4-yl]phenyl}-4-(trifluoromethyl)pyrimidin-2-amine]
< 100 nM	Cc1cc(Nc2nccc(C(F)(F)F)n2)cc(-c2ccnc(N3CCCC4(CCNC4=O)C3)c2)c1 (centres unmarked) [Example 15.29, 7-[4-(3-methyl-5-{[4-(trifluoromethyl)pyrimidin-2-yl]amino}phenyl)pyridin-2-yl]-2,7-diazaspiro[4.5]decan-1-one]

IC50	Structure (SMILES)
< 100 nM	Cc1cc(Nc2nccc(C(F)(F)F)n2)cc(-c2ccnc(N3CCCC4(CCOC4=O)C3)c2)c1 (centres unmarked) [Example 15.30, 7-[4-(3-methyl-5-{[4-(trifluoromethyl)pyrimidin-2-yl]amino}phenyl)pyridin-2-yl]-2-oxa-7-azaspiro[4.5]decan-1-one]
100 to 1000 nM	Cc1cc(Nc2nccc(C(F)(F)F)n2)cc(-c2ccnc(N3CCC4(CCN(C)C4=O)CC3)c2)c1 [Example 15.31, 2-methyl-8-[4-(3-methyl-5-{[4-(trifluoromethyl)pyrimidin-2-yl]amino}phenyl)pyridin-2-yl]-2,8-diazaspiro[4.5]decan-1-one]
< 100 nM	Cc1cc(Nc2nccc(C(F)(F)F)n2)cc(-c2ccnc(NCC3CCC(=O)N3)c2)c1 (centres unmarked) [Example 15.32, 5-({[4-(3-methyl-5-{[4-(trifluoromethyl)pyrimidin-2-yl]amino}phenyl)pyridin-2-yl]amino}methyl)pyrrolidin-2-one]
100 to 1000 nM	Cc1cc(Nc2nccc(C(F)(F)F)n2)cc(-c2ccnc(NCCc3cnccn3)c2)c1 [Example 15.33, N-(3-methyl-5-{2-[(2-pyrazin-2-ylethyl)amino]pyridin-4-yl}phenyl)-4-(trifluoromethyl)pyrimidin-2-amine]
100 to 1000 nM	Cc1cc(Nc2nccc(C(F)(F)F)n2)cc(-c2ccnc(NC(C)c3ccccn3)c2)c1 (centres unmarked) [Example 15.34, N-(3-methyl-5-{2-[(1-pyridin-2-ylethyl)amino]pyridin-4-yl}phenyl)-4-(trifluoromethyl)pyrimidin-2-amine]
100 to 1000 nM	Cc1cc(Nc2nccc(C(F)(F)F)n2)cc(-c2ccnc(NCc3cnn(C)c3)c2)c1 [Example 15.35, N-[3-methyl-5-(2-{[(1-methyl-1H-pyrazol-4-yl)methyl]amino}pyridin-4-yl)phenyl]-4-(trifluoromethyl)pyrimidin-2-amine]
100 to 1000 nM	Cc1cc(Nc2nccc(C(F)(F)F)n2)cc(-c2ccnc(N3CCCC34CCNC4=O)c2)c1 (centres unmarked) [Example 15.36, 1-[4-(3-methyl-5-{[4-(trifluoromethyl)pyrimidin-2-yl]amino}phenyl)pyridin-2-yl]-1,7-diazaspiro[4.4]nonan-6-one]
< 100 nM	CCC(CO)Nc1cc(-c2cc(C)cc(Nc3nccc(C(F)(F)F)n3)c2)ccn1 (centres unmarked) [Example 15.37, 2-{[4-(3-methyl-5-{[4-(trifluoromethyl)pyrimidin-2-yl]amino}phenyl)pyridin-2-yl]amino}butan-1-ol]
100 to 1000 nM	Cc1cc(Nc2nccc(C(F)(F)F)n2)cc(-c2ccnc(NCc3cncn3C)c2)c1 [Example 15.38, N-[3-methyl-5-(2-{[(1-methyl-1H-imidazol-5-yl)methyl]amino}pyridin-4-yl)phenyl]-4-(trifluoromethyl)pyrimidin-2-amine]
100 to 1000 nM	Cc1cc(Nc2nccc(C(F)(F)F)n2)cc(-c2ccnc(N3CCN(C(=O)c4ccc5cc[nH]c5c4)CC3)c2)c1 [Example 15.39, N-(3-{2-[4-(1H-indol-6-ylcarbonyl)piperazin-1-yl]pyridin-4-yl}-5-methylphenyl)-4-(trifluoromethyl)pyrimidin-2-amine]
100 to 1000 nM	Cc1cc(Nc2nccc(C(F)(F)F)n2)cc(-c2ccnc(NCc3cn(C)cn3)c2)c1 [Example 15.40, N-[3-methyl-5-(2-{[(1-methyl-1H-imidazol-4-yl)methyl]amino}pyridin-4-yl)phenyl]-4-(trifluoromethyl)pyrimidin-2-amine]
< 100 nM	Cc1cc(Nc2nccc(C(F)(F)F)n2)cc(-c2ccnc(NCCN)c2)c1 [Example 15.41, N-[4-(3-methyl-5-{[4-(trifluoromethyl)pyrimidin-2-yl]amino}phenyl)pyridin-2-yl]ethane-1,2-diamine]
< 100 nM	Cc1cc(Nc2nccc(C(F)(F)F)n2)cc(-c2ccnc(N3CCNC(=O)CC3)c2)c1 [Example 15.42, 1-[4-(3-methyl-5-{[4-(trifluoromethyl)pyrimidin-2-yl]amino}phenyl)pyridin-2-yl]-1,4-diazepan-5-one]
< 100 nM	Cc1cc(Nc2nccc(C(F)(F)F)n2)cc(-c2ccnc(NC(C)(C)C(=O)O)c2)c1 [Example 15.43, 2-methyl-N-[4-(3-methyl-5-{[4-(trifluoromethyl)pyrimidin-2-yl]amino}phenyl)pyridin-2-yl]alanine]
< 100 nM	Cc1cc(Nc2nccc(C(F)(F)F)n2)cc(-c2ccnc(N3CCNC(=O)C3)c2)c1 [Example 15.44, 4-[4-(3-methyl-5-{[4-(trifluoromethyl)pyrimidin-2-yl]amino}phenyl)pyridin-2-yl]piperazin-2-one]
< 100 nM	Cc1cc(Nc2nccc(C(F)(F)F)n2)cc(-c2ccnc(N(C)CCO)c2)c1 [Example 15.45, 2-{methyl[4-(3-methyl-5-{[4-(trifluoromethyl)pyrimidin-2-yl]amino}phenyl)pyridin-2-yl]amino}ethanol]
< 100 nM	Cc1cc(Nc2nccc(C(F)(F)F)n2)cc(-c2ccnc(N3CCC(C(N)=O)CC3)c2)c1 [Example 15.46, 1-[4-(3-methyl-5-{[4-(trifluoromethyl)pyrimidin-2-yl]amino}phenyl)pyridin-2-yl]piperidine-4-carboxamide]
